Measurements as given in patent US10287301B2 (Achillion Pharmaceuticals, Inc., priority 2015, dated 2019).
Counter-ions that a name gives are not always drawn.

The compounds below were run against Human Factor D (Homo sapiens (Human), UniProt P00746) (assay: Human Factor D Assay). Conditions: not given.
Type: biochemical
Summary of the method: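 Serum-purified human Factor D (80 nM final) was preincubated with test compound at various concentrations for 5 min at room temperature in 50 mM Tris, 1M NaCl, pH 7.5. Z-L-Lys-SBzl and DTNB were then added at 100 μM each. IC50 came from nonlinear regression of reaction rates versus compound concentration.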

Chain of Human Factor D (P00746 26-253): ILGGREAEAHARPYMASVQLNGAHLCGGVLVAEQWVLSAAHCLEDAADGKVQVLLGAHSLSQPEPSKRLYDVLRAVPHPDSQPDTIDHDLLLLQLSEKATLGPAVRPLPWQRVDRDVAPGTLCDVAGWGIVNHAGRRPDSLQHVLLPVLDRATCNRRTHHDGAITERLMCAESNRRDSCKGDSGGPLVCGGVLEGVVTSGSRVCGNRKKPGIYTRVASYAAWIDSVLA

`Cc1ncc(-c2ccc3c(c2)c([C@H](C)O)nn3CC(=O)N2C[C@H](F)C[C@H]2C(=O)Nc2cccc(Br)n2)cn1` [Compound 425, (2S,4R)—N-(6-Bromopyridin-2-yl)-4-fluoro-1-(2-(3-((S)-1-hydroxyethyl)-5-(2-methylpyrimidin-5-yl)-1H-indazol-1-yl)acetyl)pyrrolidine-2-carboxamide] and `Cc1ncc(-c2ccc3c(c2)c([C@@H](C)O)nn3CC(=O)N2C[C@H](F)C[C@H]2C(=O)Nc2cccc(Br)n2)cn1` [Compound 426, (2S,4R)—N-(6-Bromopyridin-2-yl)-4-fluoro-1-(2-(3-((R)-1-hydroxyethyl)-5-(2-methylpyrimidin-5-yl)-1H-indazol-1-yl)acetyl)pyrrolidine-2-carboxamide] fall in the same range of IC50: 1 to 10 µM for the first, 1 to 10 µM for the second.

Same assay, conditions: Table 3; Human Factor D 80 nM, substrate Z-L-Lys-SBzl; read-out: IC50 (Stars)

`CC(=O)c1nn(CC(=O)N2C[C@H](F)C[C@H]2C(=O)Nc2cccc(Br)n2)c2ccc(-c3cnc(CN)nc3)cc12` [Compound 404, (2S,4R)-1-(2-(3-Acetyl-5-(2-(aminomethyl)pyrimidin-5-yl)-1H-indazol-1-yl)acetyl)-N-(6-bromopyridin-2-yl)-4-fluoropyrrolidine-2-carboxamide hydrochloride] and `CC(=O)NCc1ncc(-c2ccc3c(c2)c(C(C)=O)nn3CC(=O)N2C[C@H](F)C[C@H]2C(=O)Nc2cccc(Br)n2)cn1` [Compound 406, (2S,4R)-1-(2-(5-(2-(Acetamidomethyl)pyrimidin-5-yl)-3-acetyl-1H-indazol-1-yl)acetyl)-N-(6-bromopyridin-2-yl)-4-fluoropyrrolidine-2-carboxamide] cannot be ordered by IC50: under 1 µM for the first, under 1 µM for the second.

`CC(=O)c1nn(CC(=O)N2C[C@H](F)C[C@H]2C(=O)Nc2nc(Br)ccc2C)c2ccc(-c3cnc(C)nc3)cc12` [Compound 405, (2S,4R)-1-(2-(3-Acetyl-5-(2-methylpyrimidin-5-yl)-1H-indazol-1-yl)acetyl)-N-(6-bromo-3-methylpyridin-2-yl)-4-fluoropyrrolidine-2-carboxamide] and `CC(=O)c1nn(CC(=O)N2C[C@H](F)C[C@H]2C(=O)Nc2nc(Br)ccc2C)c2ccc(-c3cnc(N)nc3)cc12` [Compound 435, (2S,4R)-1-(2-(3-Acetyl-5-(2-aminopyrimidin-5-yl)-1H-indazol-1-yl)acetyl)-N-(6-bromo-3-methylpyridin-2-yl)-4-fluoropyrrolidine-2-carboxamide] cannot be ordered by IC50: under 1 µM for the first, under 1 µM for the second.

`CC(=O)c1nn(CC(=O)N2C[C@H](F)C[C@H]2C(=O)Nc2ccc(F)cn2)c2ccc(-c3cnc(C)nc3)cc12` [Compound 407, (2S,4R)-1-(2-(3-Acetyl-5-(2-methylpyrimidin-5-yl)-1H-indazol-1-yl)acetyl)-4-fluoro-N-(5-fluoropyridin-2-yl)pyrrolidine-2-carboxamide] and `CC(=O)c1nn(CC(=O)N2C[C@H](F)C[C@H]2C(=O)Nc2ncc(F)cc2Br)c2ccc(-c3cnc(C)nc3)cc12` [Compound 408, (2S,4R)-1-(2-(3-Acetyl-5-(2-methylpyrimidin-5-yl)-1H-indazol-1-yl)acetyl)-N-(3-bromo-5-fluoropyridin-2-yl)-4-fluoropyrrolidine-2-carboxamide] cannot be ordered by IC50: under 1 µM for the first, under 1 µM for the second.

`Cc1ncc(-c2ccc3c(c2)c([C@H](C)O)nn3CC(=O)N2[C@@H]3C[C@@H]3C[C@H]2C(=O)Nc2cccc(Br)n2)cn1` [Compound 409, (1R,3S,5R)—N-(6-Bromopyridin-2-yl)-2-(2-(3-((S)-1-hydroxyethyl)-5-(2-methylpyrimidin-5-yl)-1H-indazol-1-yl)acetyl)-2-azabicyclo[3.1.0]hexane-3-carboxamide] and `CNC(=O)c1nn(CC(=O)N2C[C@H](F)C[C@H]2C(=O)Nc2cccc(Br)n2)c2ccc(-c3cnc(C)nc3)cc12` [Compound 424, 1-(2-((2S,4R)-2-((6-Bromopyridin-2-yl)carbamoyl)-4-fluoropyrrolidin-1-yl)-2-oxoethyl)-N-methyl-5-(2-methylpyrimidin-5-yl)-1H-indazole-3-carboxamide] cannot be ordered by IC50: under 1 µM for the first, under 1 µM for the second.

`CC(=O)c1nn(CC(=O)N2C[C@@](F)(CF)C[C@H]2C(=O)Nc2cccc(Br)n2)c2ccc(-c3cnc(C)nc3)cc12` [Compound 415, (2S,4R)-1-(2-(3-Acetyl-5-(2-methylpyrimidin-5-yl)-1H-indazol-1-yl)acetyl)-N-(6-bromopyridin-2-yl)-4-fluoro-4-(fluoromethyl)pyrrolidine-2-carboxamide] and `COC[C@@]1(F)C[C@@H](C(=O)Nc2cccc(Br)n2)N(C(=O)Cn2nc(C(C)=O)c3cc(-c4cnc(C)nc4)ccc32)C1` [Compound 419, (2S,4R)-1-(2-(3-Acetyl-5-(2-methylpyrimidin-5-yl)-1H-indazol-1-yl)acetyl)-N-(6-bromopyridin-2-yl)-4-fluoro-4-(methoxymethyl)pyrrolidine-2-carboxamide] cannot be ordered by IC50: under 1 µM for the first, under 1 µM for the second.

`COC[C@@]12C[C@@H](C(=O)Nc3cccc(Br)n3)N(C(=O)Cn3nc(C(C)=O)c4cc(-c5cnc(C)nc5)ccc43)[C@@H]1C2` [Compound 416, (1R,3S,5S)-2-(2-(3-Acetyl-5-(2-methylpyrimidin-5-yl)-1H-indazol-1-yl)acetyl)-N-(6-bromopyridin-2-yl)-5-(methoxymethyl)-2-azabicyclo[3.1.0]hexane-3-carboxamide] and `COC[C@@]12C[C@@H]1N(C(=O)Cn1nc(C(C)=O)c3cc(-c4cnc(C)nc4)ccc31)[C@H](C(=O)Nc1cccc(Br)n1)C2` [Compound 417, (1S,3S,5R)-2-(2-(3-Acetyl-5-(2-methylpyrimidin-5-yl)-1H-indazol-1-yl)acetyl)-N-(6-bromopyridin-2-yl)-5-(methoxymethyl)-2-azabicyclo[3.1.0]hexane-3-carboxamide] cannot be ordered by IC50: under 1 µM for the first, under 1 µM for the second.

`CC(=O)c1nn(CC(=O)N2C[C@](C)(F)C[C@H]2C(=O)Nc2cccc(Br)n2)c2ccc(-c3cnc(C)nc3)cc12` [Compound 418, (2S,4R)-1-(2-(3-Acetyl-5-(2-methylpyrimidin-5-yl)-1H-indazol-1-yl)acetyl)-N-(6-bromopyridin-2-yl)-4-fluoro-4-methylpyrrolidine-2-carboxamide] and `CC(=O)c1nn(CC(=O)N2C[C@H](F)[C@@H](N)[C@H]2C(=O)Nc2cccc(Br)n2)c2ccc(-c3cnc(C)nc3)cc12` [Compound 427, (2S,3S,4S)-1-(2-(3-Acetyl-5-(2-methylpyrimidin-5-yl)-1H-indazol-1-yl)acetyl)-3-amino-N-(6-bromopyridin-2-yl)-4-fluoropyrrolidine-2-carboxamide] cannot be ordered by IC50: under 1 µM for the first, under 1 µM for the second.

`CC(=O)c1nn(CC(=O)N2C[C@H](F)C[C@H]2C(=O)Nc2nn(CC(F)(F)F)cc2Br)c2ccc(-c3cnc(C)nc3)cc12` [Compound 420, (2S,4R)-1-(2-(3-Acetyl-5-(2-methylpyrimidin-5-yl)-1H-indazol-1-yl)acetyl)-N-(4-bromo-1-(2,2,2-trifluoroethyl)-1H-pyrazol-3-yl)-4-fluoropyrrolidine-2-carboxamide] and `CC(=O)c1nn(CC(=O)N2C[C@H](F)C[C@H]2C(=O)Nc2nn(CC(F)(F)F)cc2Cl)c2ccc(-c3cnc(C)nc3)cc12` [Compound 430, (2S,4R)-1-(2-(3-Acetyl-5-(2-methylpyrimidin-5-yl)-1H-indazol-1-yl)acetyl)-N-(4-chloro-1-(2,2,2-trifluoroethyl)-1H-pyrazol-3-yl)-4-fluoropyrrolidine-2-carboxamide] cannot be ordered by IC50: under 1 µM for the first, under 1 µM for the second.

First: CC(=O)c1nn(CC(=O)N2C[C@@H](N)[C@H](F)[C@H]2C(=O)Nc2cccc(Br)n2)c2ccc(-c3cnc(C)nc3)cc12 [Compound 428, (2R,3S,4R)-1-(2-(3-Acetyl-5-(2-methylpyrimidin-5-yl)-1H-indazol-1-yl)acetyl)-4-amino-N-(6-bromopyridin-2-yl)-3-fluoropyrrolidine-2-carboxamide]
Second: COc1cc(Br)nc(NC(=O)[C@@H]2C[C@@H](F)CN2C(=O)Cn2nc(C(C)=O)c3cc(-c4cnc(N)nc4)ccc32)c1 [Compound 432, (2S,4R)-1-(2-(3-Acetyl-5-(2-aminopyrimidin-5-yl)-1H-indazol-1-yl)acetyl)-N-(6-bromo-4-methoxypyridin-2-yl)-4-fluoropyrrolidine-2-carboxamide]
The IC50 of the first is higher: over 10 µM for the first, under 1 µM for the second. The second is the more potent here.

`CC(=O)c1nn(CC(=O)N2C[C@H](F)C[C@H]2C(=O)Nc2cc(C)n(CC(F)(F)F)n2)c2ccc(-c3cnc(C)nc3)cc12` [Compound 429, (2S,4R)-1-(2-(3-Acetyl-5-(2-methylpyrimidin-5-yl)-1H-indazol-1-yl)acetyl)-N-(5-methyl-1-(2,2,2-trifluoroethyl)-1H-pyrazol-3-yl)-4-fluoropyrrolidine-2-carboxamide] and `COc1cc(Br)nc(NC(=O)[C@@H]2C[C@@H](F)CN2C(=O)Cn2nc(C(C)=O)c3cc(-c4cnc(OC)nc4)ccc32)c1` [Compound 431, (2S,4R)-1-(2-(3-Acetyl-5-(2-methoxypyrimidin-5-yl)-1H-indazol-1-yl)acetyl)-N-(6-bromo-4-methoxypyridin-2-yl)-4-fluoropyrrolidine-2-carboxamide] cannot be ordered by IC50: under 1 µM for the first, under 1 µM for the second.

`COc1cc(Br)nc(NC(=O)[C@@H]2C[C@H]3C[C@H]3N2C(=O)Cn2nc(C(C)=O)c3cc(-c4cnc(OC)nc4)ccc32)c1` [Compound 433, (1R,3S,5R)-2-(2-(3-Acetyl-5-(2-methoxypyrimidin-5-yl)-1H-indazol-1-yl)acetyl)-N-(6-bromo-4-methoxypyridin-2-yl)-2-azabicyclo[3.1.0]hexane-3-carboxamide] and `COc1cc(Br)nc(NC(=O)[C@@H]2C[C@H]3C[C@H]3N2C(=O)Cn2nc(C(C)=O)c3cc(-c4cnc(N)nc4)ccc32)c1` [Compound 434, (1R,3S,5R)-2-(2-(3-Acetyl-5-(2-aminopyrimidin-5-yl)-1H-indazol-1-yl)acetyl)-N-(6-bromo-4-methoxypyridin-2-yl)-2-azabicyclo[3.1.0]hexane-3-carboxamide] cannot be ordered by IC50: under 1 µM for the first, under 1 µM for the second.

`COc1ncc(-c2ccc3c(c2)c(C(C)=O)nn3CC(=O)N2C[C@H](F)C[C@H]2C(=O)Nc2nc(Br)ccc2C)cn1` [Compound 436, (2S,4R)-1-(2-(3-Acetyl-5-(2-methoxypyrimidin-5-yl)-1H-indazol-1-yl)acetyl)-N-(6-bromo-3-methylpyridin-2-yl)-4-fluoropyrrolidine-2-carboxamide] showed an IC50 of under 1 µM.
